Reference: PubChem BioAssay AID248 (DTP/NCI, 2004)
Where “and” joins values, the source holds several entries; their conditions need not be identical. Identical values can stand only once. Inconclusive results and toxic doses are left out. Cut-off read from the data, not from the text of the source: active = T/C of 150% or more; inactive = T/C below 125%.

Tested on: L1210 leukemia ip in BDF1 mice, survival T/C
Test: NCI In Vivo Anticancer Drug Screen. Data for tumor model L1210 Leukemia (intraperitoneal) in B6D2F1 (BDF1) mice
Conditions: endpoint: mean survival time, higher = longer survival
Summary of the method: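 Transplanted-tumor mice were given test agent; controls received vehicle only. Survival readings from the two groups were divided (treated over control).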

[1] = dose: 100.0 mg/kg/injection, schedule: Q01DX009 (ip), vehicle: saline with Tween-80
[2] = dose: 100.0 mg/kg/injection, schedule: Q04DX003 (ip), vehicle: saline with Tween-80
[3] = dose: 200.0 mg/kg/injection, schedule: Q04DX003 (ip), vehicle: saline with Tween-80
[4] = dose: 400.0 mg/kg/injection, schedule: Q04DX003 (ip), vehicle: saline with Tween-80
[5] = dose: 50.0 mg/kg/injection, schedule: Q01DX009 (ip), vehicle: Klucel (hydroxypropylcellulose) (HPC)
[6] = dose: 100.0 mg/kg/injection, schedule: Q04DX003 (ip), vehicle: Klucel (hydroxypropylcellulose) (HPC)
[7] = dose: 200.0 mg/kg/injection, schedule: Q04DX003 (ip), vehicle: Klucel (hydroxypropylcellulose) (HPC)
[8] = dose: 50.0 mg/kg/injection, schedule: Q01DX001 (ip), vehicle: saline
[9] = dose: 100.0 mg/kg/injection, schedule: Q01DX001 (ip), vehicle: saline
[10] = dose: 200.0 mg/kg/injection, schedule: Q01DX001 (ip), vehicle: saline
[11] = dose: 400.0 mg/kg/injection, schedule: Q01DX001 (ip), vehicle: saline

Measured: T/C

CCCCCCCCCCCn1cnc2c(=S)nc[nH]c21
inactive: dose: 12.5 mg/kg/injection, schedule: Q01DX005 (ip), vehicle: other 103 % of control | dose: 25.0 mg/kg/injection, schedule: Q01DX005 (ip), vehicle: other 97 % of control | dose: 50.0 mg/kg/injection, schedule: Q01DX005 (ip), vehicle: other 98 % of control | dose: 100.0 mg/kg/injection, schedule: Q01DX005 (ip), vehicle: other 98 % of control | dose: 200.0 mg/kg/injection, schedule: Q01DX005 (ip), vehicle: other 97 % of control

COC(=O)C1OC(n2cnc3c(N)ncnc32)C(OC(C)=O)C(OC(C)=O)C1OC(C)=O (centres undefined)
inactive: dose: 50.0 mg/kg/injection, schedule: Q01DX001 (ip), vehicle: carboxymethylcellulose (CMC) 100 % of control | dose: 100.0 mg/kg/injection, schedule: Q01DX001 (ip), vehicle: carboxymethylcellulose (CMC) 92 % of control | dose: 200.0 mg/kg/injection, schedule: Q01DX001 (ip), vehicle: carboxymethylcellulose (CMC) 100 % of control | dose: 400.0 mg/kg/injection, schedule: Q01DX001 (ip), vehicle: carboxymethylcellulose (CMC) 92 % of control

CC(=O)Nc1cc(C)cc(NC(C)=O)c1C
inactive: dose: 75.0 mg/kg/injection, schedule: Q01DX001 (ip), vehicle: carboxymethylcellulose (CMC) 94 % of control | dose: 300.0 mg/kg/injection, schedule: Q01DX001 (ip), vehicle: carboxymethylcellulose (CMC) 90 % of control

COC(OC)c1[nH]c(=S)[nH]c(=O)c1Cc1cc([N+](=O)[O-])ccc1O
inactive: [1] 100 % of control | [2] 101 % of control | dose: 200.0 mg/kg/injection, schedule: Q01DX009 (ip), vehicle: saline with Tween-80 91 % of control | [3] 97 % of control | dose: 400.0 mg/kg/injection, schedule: Q01DX009 (ip), vehicle: saline with Tween-80 93 % of control | [4] 94 % of control

CC1CC(Cc2ccccc2CC2CC(C)OC2=O)C(=O)O1 (centres undefined)
inactive: dose: 100.0 mg/kg/injection, schedule: Q04DX003 (ip), vehicle: saline 90 % of control | dose: 200.0 mg/kg/injection, schedule: Q04DX003 (ip), vehicle: saline 89 % of control | dose: 400.0 mg/kg/injection, schedule: Q04DX003 (ip), vehicle: saline 89 % of control

OC1(C#CC2(O)CCCCC2)CCCCC1
inactive: [5] 98 % of control | dose: 100.0 mg/kg/injection, schedule: Q01DX009 (ip), vehicle: Klucel (hydroxypropylcellulose) (HPC) 89 % of control | [6] 98 % of control | dose: 200.0 mg/kg/injection, schedule: Q01DX009 (ip), vehicle: Klucel (hydroxypropylcellulose) (HPC) 102 % of control | [7] 90 % of control

Cc1cc(C#N)cc(C)c1N
inactive: dose: 75.0 mg/kg/injection, schedule: Q01DX001 (ip), vehicle: other 100 % of control | dose: 150.0 mg/kg/injection, schedule: Q01DX001 (ip), vehicle: other 95 % of control | dose: 300.0 mg/kg/injection, schedule: Q01DX001 (ip), vehicle: other 105 % of control

O=C(O)Cc1cc2c(cc1[N+](=O)[O-])OCO2
inactive: [8] 103 % of control | [9] 97 % of control | [10] 97 % of control | [11] 103 % of control

NC(=O)c1ccc(Cl)c([N+](=O)[O-])c1
inactive: [6] 110 % of control | [7] 109 % of control

CCCCOCCOCCOc1ccc(C(=O)OC)cc1
inactive: dose: 100.0 mg/kg/injection, schedule: Q01DX001 (ip), vehicle: saline sonified 103 % of control | dose: 200.0 mg/kg/injection, schedule: Q01DX001 (ip), vehicle: saline sonified 96 % of control | dose: 400.0 mg/kg/injection, schedule: Q01DX001 (ip), vehicle: saline sonified 100 % of control

C(=N\Nc1nnc(N/N=C/c2cccc(OCc3ccccc3)c2)c2ccccc12)/c1cccc(OCc2ccccc2)c1
inactive: [8] 101 % of control | [9] 95 % of control | [10] 92 % of control | [11] 97 % of control

CC(C)c1nc(C=O)c(C=O)n1Cc1ccccc1
inactive: dose: 25.0 mg/kg/injection, schedule: Q01DX009 (ip), vehicle: saline with Tween-80 100 % of control and 90 % of control | dose: 25.0 mg/kg/injection, schedule: Q04DX002 (ip), vehicle: saline with Tween-80 101 % of control and 103 % of control | dose: 25.0 mg/kg/injection, schedule: Q04DX003 (ip), vehicle: carboxymethylcellulose (CMC) 92 % of control | dose: 50.0 mg/kg/injection, schedule: Q01DX001 (ip), vehicle: saline with Tween-80 89 % of control | dose: 50.0 mg/kg/injection, schedule: Q01DX009 (ip), vehicle: saline with Tween-80 102 % of control and 103 % of control | dose: 50.0 mg/kg/injection, schedule: Q04DX002 (ip), vehicle: saline with Tween-80 95 % of control and 101 % of control | dose: 50.0 mg/kg/injection, schedule: Q04DX003 (ip), vehicle: carboxymethylcellulose (CMC) 95 % of control | dose: 100.0 mg/kg/injection, schedule: Q01DX001 (ip), vehicle: saline with Tween-80 96 % of control | [1] 94 % of control and 105 % of control | dose: 100.0 mg/kg/injection, schedule: Q04DX002 (ip), vehicle: Klucel (hydroxypropylcellulose) (HPC) 105 % of control | dose: 100.0 mg/kg/injection, schedule: Q04DX002 (ip), vehicle: other 98 % of control and 89 % of control | dose: 100.0 mg/kg/injection, schedule: Q04DX002 (ip), vehicle: saline with Tween-80 95 % of control and 86 % of control | dose: 100.0 mg/kg/injection, schedule: Q04DX003 (ip), vehicle: carboxymethylcellulose (CMC) 100 % of control | dose: 200.0 mg/kg/injection, schedule: Q01DX001 (ip), vehicle: saline with Tween-80 94 % of control | dose: 200.0 mg/kg/injection, schedule: Q04DX002 (ip), vehicle: Klucel (hydroxypropylcellulose) (HPC) 107 % of control | dose: 200.0 mg/kg/injection, schedule: Q04DX002 (ip), vehicle: other 98 % of control

NC1=Nc2cccc3cccc(c23)N1
inactive: dose: 12.5 mg/kg/injection, schedule: Q01DX009 (ip), vehicle: Klucel (hydroxypropylcellulose) (HPC) 95 % of control | dose: 12.5 mg/kg/injection, schedule: Q04DX003 (ip), vehicle: Klucel (hydroxypropylcellulose) (HPC) 95 % of control | dose: 25.0 mg/kg/injection, schedule: Q01DX009 (ip), vehicle: Klucel (hydroxypropylcellulose) (HPC) 93 % of control | dose: 25.0 mg/kg/injection, schedule: Q04DX003 (ip), vehicle: Klucel (hydroxypropylcellulose) (HPC) 92 % of control | [5] 90 % of control | dose: 50.0 mg/kg/injection, schedule: Q04DX003 (ip), vehicle: Klucel (hydroxypropylcellulose) (HPC) 98 % of control

CN(C)CCNCc1ccccc1
inactive: dose: 44.4 mg/kg/injection, schedule: Q01DX001 (ip), vehicle: saline 95 % of control and 98 % of control | dose: 66.7 mg/kg/injection, schedule: Q01DX001 (ip), vehicle: saline 96 % of control and 102 % of control | dose: 75.0 mg/kg/injection, schedule: Q01DX001 (ip), vehicle: saline 98 % of control | dose: 150.0 mg/kg/injection, schedule: Q01DX001 (ip), vehicle: saline 91 % of control and 94 % of control | dose: 300.0 mg/kg/injection, schedule: Q01DX001 (ip), vehicle: saline 95 % of control

CC1CCCCC1C(=O)N1CCCCC1 (centres undefined)
inactive: dose: 100.0 mg/kg/injection, schedule: Q04DX002 (ip), vehicle: saline 117 % of control | dose: 200.0 mg/kg/injection, schedule: Q04DX002 (ip), vehicle: saline 96 % of control | dose: 400.0 mg/kg/injection, schedule: Q04DX002 (ip), vehicle: saline 101 % of control

COc1ccc(OC)c(C(=O)CC(O)(C(F)(F)F)C(F)(F)F)c1
inactive: [2] 94 % of control | [3] 90 % of control | [4] 99 % of control

CCOC(=O)c1cc2cc([N+](=O)[O-])ccc2oc1=O
inactive: [6] 93 % of control | [7] 93 % of control | dose: 400.0 mg/kg/injection, schedule: Q04DX003 (ip), vehicle: Klucel (hydroxypropylcellulose) (HPC) 94 % of control

CCCCCCCCCc1cc(C)cc(Cc2cc(C)cc(CCCCCCCCC)c2O)c1O
inactive: [9] 98 % of control | [10] 98 % of control | [11] 101 % of control

Fc1c(F)c(F)c(-c2ccccc2)c(F)c1F
inactive: dose: 25.6 mg/kg/injection, schedule: Q04DX002 (ip), vehicle: saline with Tween-80 92 % of control | dose: 64.0 mg/kg/injection, schedule: Q04DX002 (ip), vehicle: saline with Tween-80 95 % of control | dose: 160.0 mg/kg/injection, schedule: Q04DX002 (ip), vehicle: saline with Tween-80 95 % of control | dose: 400.0 mg/kg/injection, schedule: Q04DX002 (ip), vehicle: saline with Tween-80 95 % of control
